Test results taken from US20230141965A1, “TREATMENT OF INFECTIOUS DISEASES” (Durect Corporation, priority 2020, published 2023).

Key:
C57BL/6J mice = assay: Acute organ injury in mice challenged with lipopolysaccharide (LPS); assay type: in vivo; conditions: for health of kidney, lung, and liver tissues (sections stained with hematoxylin and eosin, light microscope): C57BL/6J mice, 50 mg/kg i.p. two hours before i.v. LPS 5 mg/kg, tissues collected at day 3, FIG. 1
Protocol: C57BL/6J mice, 21 week old, received an i.p. injection of 25HC3S sodium salt (50 mg/kg) or vehicle. Two hours later, mice were challenged with an intravenous injection of lipopolysaccharide (LPS) at 5 mg/kg. For vehicle-treated mice, the tissues, liver, lung, and kidney, were collected right before when animals met all criteria to be sacrificed. For mice treated with 25HC3S sodium salt, tissues were collected at the day 3, when 80% of vehicle-treated mice died. The tissue sections were stained with hematoxylin and eosin, examined under light microscope with magnification x 100.

mice = assay: Acute organ injury in mice given acetaminophen (APAP) injection; assay type: in vivo; conditions: for kidney, lung, and liver tissues: mice, 25 mg/kg with APAP injection (600 mg/kg APAP for 24hr), FIG. 2
Protocol: Normal: normal mice without treatment; Control: mice with 10% glucose and acetaminophen (APAP) injection (600 mg/kg APAP for 24hr); PG: mice with vehicle and APAP injection (600 mg/kg APAP for 24hr); PG+25HC3S: mice with 25HC3S (25 mg/kg) and APAP injection.

C[C@H](CCCC(C)(C)O)[C@H]1CC[C@H]2[C@@H]3CC=C4C[C@@H](OS(=O)(=O)[O-])CC[C@]4(C)[C@H]3CC[C@]12C.[Na+] [25HC3S, 5-cholesten-3, 25-diol, 3-sulfate]
health of kidney, lung, and liver tissues (sections stained with hematoxylin and eosin, light microscope) (C57BL/6J mice; listed as 25HCS): improved kidney, lung, and liver tissues
protection of mice from lipopolysaccharide (LPS) (C57BL/6J mice; FIG. 1 legend, LPS 5 mg/kg i.v.): protected mice from lipopolysaccharide (LPS)
protection of mice from acetaminophen (mice; FIG. 2 legend, 600 mg/kg APAP): protected mice from acetaminophen
kidney, lung, and liver tissues (mice): improved kidney, lung, and liver tissues

C[C@H](CCCC(C)(C)O)[C@H]1CC[C@H]2[C@@H]3CC=C4CC(OS(=O)(=O)[O-])CC[C@]4(C)[C@H]3CC[C@]12C.[Na+] (stereo partly drawn) [25HC3S sodium salt, 5-cholesten-3, 25-diol, 3-sulfate]
health of kidney, lung, and liver tissues (sections stained with hematoxylin and eosin, light microscope) (C57BL/6J mice): improved the health of kidney, lung, and liver tissues
kidney, lung, and liver tissues (mice): improved kidney, lung, and liver tissues
